The assay addresses Envelope glycoprotein gp160 (Human immunodeficiency virus 1, UniProt Q6QLK5). Description: inhibitors of HIV fusion peptide binding, primary screen, biochemical, uHTS, fluorescence dequenching (AID 1986).

We go through 1 compound from ChEMBL document CHEMBL1201862, “PubChem BioAssay data set” (2004).

Active and inactive are the calls of the source. Rule as the data show it: actives have a measured IC50 and inactives only a lower limit.

Envelope glycoprotein gp160, sequence (Q6QLK5 whole entry, the tested form may be a part): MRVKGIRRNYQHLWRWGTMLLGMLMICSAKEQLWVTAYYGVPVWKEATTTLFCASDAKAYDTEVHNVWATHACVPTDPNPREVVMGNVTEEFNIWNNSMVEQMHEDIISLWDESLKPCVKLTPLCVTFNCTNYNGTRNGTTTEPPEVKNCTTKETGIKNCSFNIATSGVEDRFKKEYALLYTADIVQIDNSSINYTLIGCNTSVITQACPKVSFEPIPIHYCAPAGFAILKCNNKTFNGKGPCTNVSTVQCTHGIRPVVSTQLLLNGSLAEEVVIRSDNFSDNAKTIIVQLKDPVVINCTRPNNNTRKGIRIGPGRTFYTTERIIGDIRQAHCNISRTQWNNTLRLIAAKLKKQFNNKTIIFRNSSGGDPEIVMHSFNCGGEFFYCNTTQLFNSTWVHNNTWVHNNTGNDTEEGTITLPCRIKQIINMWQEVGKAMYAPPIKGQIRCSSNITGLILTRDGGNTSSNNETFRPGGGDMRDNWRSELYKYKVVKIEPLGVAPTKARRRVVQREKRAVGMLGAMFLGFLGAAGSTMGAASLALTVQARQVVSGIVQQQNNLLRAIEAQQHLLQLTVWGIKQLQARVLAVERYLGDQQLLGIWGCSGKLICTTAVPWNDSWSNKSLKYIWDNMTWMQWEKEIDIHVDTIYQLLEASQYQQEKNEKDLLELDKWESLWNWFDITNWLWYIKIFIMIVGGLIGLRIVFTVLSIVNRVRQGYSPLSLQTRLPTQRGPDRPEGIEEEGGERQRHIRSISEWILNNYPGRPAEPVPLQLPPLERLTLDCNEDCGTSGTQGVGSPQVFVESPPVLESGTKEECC

In general, IC50 refers to the concentration needed to halve the response being measured. As for `COc1cc(/C=C2\SC(=O)N(c3ccccc3Cl)C2=O)cc([N+](=O)[O-])c1O`, the IC50 is 24.7 µM (active).
